What was measured:
[1] = Excitation and fluorescence wavelengths by fluorescence spectrometer FL4500; format: physicochemical; details: aqueous solution: 10 mg/mL DMSO solution diluted to 1/500 with purified water (Examples 1 to 94); in nm (unit assumed)
[2] = system: intraocular tissue (retinal tissue incl. photoreceptor cell layer, vitreous body) of Zebrafish 7-day-old embryo; assay: Staining of intraocular tissue of Zebrafish fry by exposure to staining liquid, ocular tissue section observed by confocal microscope; format: in vivo; details: Zebrafish 7 dpf fry, 1 μg/mL, 1 hour exposure, fixed ocular section

| SMILES | λem (fluorescence wavelength) [1] | λex (excitation wavelength) [1] | Staining ability [2] | Stained site [2] |
| --- | --- | --- | --- | --- |
| CCN1C(=O)/C(=c2\s/c(=C/c3ccc(N(c4ccccc4)c4ccc5c(c4)C(C)(C)c4ccccc4-5)cc3)c(=O)n2CC(=O)O)SC1=S [Compound 32] | 640 | 558 | ++ |  |
| CC1(C)c2ccccc2-c2ccc(N(c3ccccc3)c3ccc(/C=C4/SC(=S)N(CC(=O)O)C4=O)cc3)cc21 [Compound 33] | 628 | 512 | ++ |  |
| COc1ccc(N2c3ccc(/C=C4\SC(=S)N(CC(=O)O)C4=O)cc3[C@@H]3CCC[C@@H]32)cc1 [Compound 34] | 648 | 571 | ++ |  |
| O=C(O)CN1C(=O)/C(=C/c2ccc3c(c2)[C@@H]2CCC[C@@H]2N3c2ccc(C=C(c3ccccc3)c3ccccc3)cc2)SC1=S [Compound 35] | 655 | 535 | ++ |  |
| O=C(O)CN1C(=O)/C(=C\c2ccc3c(c2)[C@@H]2CCC[C@@H]2N3c2ccccc2)SC1=S [Compound 37] | 633 | 531 | +++ |  |
| O=C(O)CN1C(=O)/C(=C\c2cc(Br)c3c(c2)[C@@H]2CCC[C@@H]2N3c2ccc(Br)cc2)SC1=S [Compound 38] | 609 | 482 | ++ |  |
| CCN1S/C(=c2\s/c(=C/c3ccc4c(c3)[C@@H]3CCC[C@@H]3N4Cc3ccccc3)c(=O)n2CC(=O)O)SC1=S [Compound 39] | 657 | 576 | ++ |  |
| CCN1C(=S)S/C(=c2/s/c(=C/c3cc(Br)c4c(c3)[C@@H]3CCC[C@@H]3N4c3ccc(Br)cc3)c(=O)n2CC(=O)O)C1=S [Compound 40] | 671 | 559 | ++ |  |
| CCN1C(=O)/C(=c2\s/c(=C/c3ccc4c(c3)[C@@H]3CCC[C@@H]3N4c3ccc(OC)cc3)c(=O)n2CC(=O)O)SC1=S [Compound 41] | 679 | 582 | ++ |  |
| COc1ccc(N2c3ccc(/C=C4/SC(=S)N(CCC(=O)O)C4=O)cc3C3CCCC32)cc1 (centres unmarked) [Compound 44] | 651 | 564 | ++ |  |
| O=C(O)C1=NN(c2ccccc2)C(=O)/C1=C\c1ccc2c(c1)C1CCCC1N2c1ccc(Cc2ccccc2)cc1 (centres unmarked) [Compound 45] | 586 | 481 | ++ |  |
| O=C(O)CCN1C(=O)/C(=C\c2ccc3c(c2)C2CCCC2N3Cc2ccccc2)SC1=S (centres unmarked) [Compound 47] | 611 | 522 | ++ |  |
| COc1ccc2cc(N3c4ccc(/C=C5\C(=O)N(c6ccc(C(=O)O)cc6)N=C5C)cc4C4CCCC43)ccc2c1 (centres unmarked) [Compound 49] | 649 | 569 | ++ |  |
| CCOC(=O)CN1C(=O)/C(=C\c2cc(Br)c3c(c2)C2CCCC2N3c2ccc(Br)cc2)SC1=S (centres unmarked) [Compound 50] | 580 | 482 | ++ |  |
| C=CCN1C(=O)S/C(=c2/s/c(=C/c3ccc4c(c3)C3CCCC3N4c3ccccc3)c(=O)n2CC(=O)OCC)C1=O (centres unmarked) [Compound 51] | 638 | 580 | ++ |  |
| CCOC(=O)CN1C(=O)/C(=C\c2ccc3c(c2)C2CCCC2N3c2ccccc2)SC1=S (centres unmarked) [Compound 52] | 638 | 580 | ++ |  |
| COc1ccc(N2c3ccc(/C=c4/s/c(=C5/SC(=O)N(Cc6ccccc6)C5=O)n(CC(=O)O)c4=O)cc3C3CCCC32)cc1 (centres unmarked) [Compound 53] | 712 | 568 | ++ |  |
| CCOC(=O)Cn1c(=O)/c(=C\c2ccc3c(c2)C2CCCC2N3c2ccc3cc(OC)ccc3c2)s/c1=C1/SC(=O)N(CC)C1=O (centres unmarked) [Compound 54] | 647 | 597 | ++ |  |
| CCN1C(=O)S/C(=c2/s/c(=C/c3ccc4c(c3)C3CCCC3N4c3ccccc3)c(=O)n2CC(=O)O)C1=O (centres unmarked) [Compound 55] | 644 | 502 | ++ |  |
| O=C(O)CN1C(=O)/C(=C\c2cc(Br)c3c(c2)C2CCCC2N3Cc2ccccc2)SC1=S (centres unmarked) [Compound 56] | 606 | 486 | ++ |  |

| SMILES | λem (fluorescence wavelength) [1] | λex (excitation wavelength) [1] | Staining ability [2] | Stained site [2] |
| --- | --- | --- | --- | --- |
| CCCCCCCCN1C(=O)S/C(=c2/s/c(=C/c3ccc4c(c3)C3CCCC3N4c3ccc(C=C(c4ccccc4)c4ccccc4)cc3)c(=O)n2CC(=O)OCC)C1=O (centres unmarked) [Compound 57] | 671 | 590 | ++ |  |
| CCCCCCCCN1C(=O)S/C(=c2/s/c(=C/c3ccc4c(c3)C3CCCC3N4c3ccc(OC)cc3)c(=O)n2CC(=O)OCC)C1=O (centres unmarked) [Compound 58] | 676 | 546 | ++ |  |
| CCCCCCCCN1C(=O)S/C(=c2/s/c(=C/c3ccc4c(c3)C3CCCC3N4c3ccccc3)c(=O)n2CC(=O)OCC)C1=O (centres unmarked) [Compound 59] | 625 | 581 | ++ |  |
| COc1ccc(N2c3ccc(/C=C/c4sc5ccccc5[n+]4CC(=O)O)cc3C3CCCC32)cc1.[Br-] (centres unmarked) [Compound 60] | 677 | 560 | ++ | 2 |
| O=C(O)C[n+]1c(/C=C/c2ccc3c(c2)C2CCCC2N3c2ccccc2)sc2ccccc21.[Br-] (centres unmarked) [Compound 61] | 636 | 545 | ++ |  |
| O=C(O)C[n+]1c(/C=C/c2ccc3c(c2)C2CCCC2N3c2ccc(C=C(c3ccccc3)c3ccccc3)cc2)sc2ccccc21.[Br-] (centres unmarked) [Compound 62] | 675 | 610 | ++ | 2 |
| O=C(O)C[n+]1c(/C=C/c2ccc3c(c2)C2CCCC2N3Cc2ccccc2)sc2ccccc21.[Br-] (centres unmarked) [Compound 63] | 611 | 566 | ++ | 1 |
| COc1ccc2cc(N3c4ccc(/C=C/c5sc6ccccc6[n+]5CC(=O)O)cc4C4CCCC43)ccc2c1.[Br-] (centres unmarked) [Compound 64] | 516 | 401 | ++ | 2 |
| O=C(O)C[n+]1c(/C=C/c2ccc3c(c2)C2CCCC2N3c2ccc(C=C(c3ccccc3)c3ccccc3)cc2)oc2ccccc21.[Br-] (centres unmarked) [Compound 65] | 657 | 570 | ++ | 1 |
| CCN1C(=O)/C(=c2\s/c(=C/c3ccc4c(c3)C3CCCC3N4c3ccc(SC)cc3)c(=O)n2CC(=O)O)SC1=S (centres unmarked) [Compound 67] | 699 | 570 | +++ |  |
| CCCCN1C(=O)/C(=c2\s/c(=C/c3ccc4c(c3)C3CCCC3N4c3ccc(OC)cc3)c(=O)n2CC(=O)OCC)SC1=S (centres unmarked) [Compound 68] | 527 | 450 | ++ |  |
| CCCCN1C(=O)/C(=c2\s/c(=C/c3ccc4c(c3)C3CCCC3N4c3ccccc3)c(=O)n2CC(=O)OCC)SC1=S (centres unmarked) [Compound 69] | 609 | 653 | ++ |  |
| COc1ccc(N2c3ccc(/C=C/C4=[N+](CCC(=O)O)c5ccccc5C4(C)C)cc3C3CCCC32)cc1.[I-] (centres unmarked) [Compound 71] | 671 | 592 | ++ |  |
| CCN1C(=O)/C(=c2\s/c(=C/c3cc(Br)c4c(c3)C3CCCC3N4Cc3ccccc3)c(=O)n2CC(=O)O)SC1=S (centres unmarked) [Compound 73] | 649 | 548 | ++ |  |
| COc1ccc(N2c3ccc(/C=C/C4=[N+](C)c5ccccc5C4(C)C)cc3C3CCCC32)cc1.[Br-] (centres unmarked) [Compound 74] | 669 | 614 | ++ | 1 |
| COc1ccc(N2c3ccc(/C=C/C4=[N+](CCC(=O)O)c5ccc6ccccc6c5C4(C)C)cc3C3CCCC32)cc1.[I-] (centres unmarked) [Compound 75] | 683 | 619 | ++ | 1 |
| CC1(C)C(/C=C/c2ccc3c(c2)C2CCCC2N3c2ccc(C=C(c3ccccc3)c3ccccc3)cc2)=[N+](CCC(=O)O)c2ccc3ccccc3c21 (centres unmarked) [Compound 76] | 724 | 674 | ++ |  |
| COc1ccc(N2c3ccc(/C=C/c4sc5ccccc5[n+]4CCC(=O)O)cc3C3CCCC32)cc1 (centres unmarked) [Compound 77] | 668 | 583 | ++ |  |
| O=C(O)CC[n+]1c(/C=C/c2ccc3c(c2)C2CCCC2N3c2ccc(C=C(c3ccccc3)c3ccccc3)cc2)sc2ccccc21.[I-] (centres unmarked) [Compound 78] | 726 | 598 | ++ | 1 |
| CCN1C(=S)S/C(=c2/s/c(=C/c3ccc4c(c3)C3CCCC3N4c3ccc(C=C(c4ccccc4)c4ccccc4)cc3)c(=O)n2CC(=O)O)C1=S (centres unmarked) [Compound 79] | 702 | 567 | ++ |  |

From US9764046B2, “Labeling composition for intraocular tissue, labeling method of intraocular tissue, and screening method” (CANON KABUSHIKI KAISHA, priority 2008, dated 2017)
